Measurements taken from patent publication US4351948A, “Imidazole hydrazone derivatives” (priority 1980, dated 1982).
Counter-ions that a name gives are not always drawn. Like-named read-outs stand apart in the source and are kept apart here.

Tests used:
Experiment in all cases: Antianaerobic activity, MIC by standard broth dilution method (Table II)
Format in all cases: cell-based
[1] = system: C. sporogenes ATCC 19404; conditions: Clostridium sporogenes, ATCC19404, 24 h
Procedure: (§1) The activity of the compounds identified in the Table II below was tested for antianaerobic activity against one strain of Bacteroides fragilis, one strain of Bacteroides uniformis, one strain of Clostridium sporogenes and one strain of Trichomonas vaginalis as the test organism. The methods used involved determining the minimum inhibitory concentration by the standard broth dilution method. The values for metronidazole (2-methyl-5-nitro-1H-imidazole-1-ethanol) are given above for reference purposes. For convenience the compounds are referred to by an internal reference number (an HC number) and this is correlated with the number of the Example wherein its production is described.

[2] = system: B. uniformis ATCC 8492; conditions: Bacteroides uniformis, ATCC8492, 24 h, read-out: Minimal Inhibitory Concentration (MIC)
Procedure: as §1, with “The values for metronidazole (2-methyl-5-nitro-1H-imidazole-1-ethanol) are given above for reference purposes.” left out

[3] = system: B. fragilis ATCC 23745; conditions: Bacteroides fragilis, ATCC23745, 24 h, read-out: Minimal Inhibitory Concentration (MIC)
Procedure: as §1, with “The values for metronidazole (2-methyl-5-nitro-1H-imidazole-1-ethanol) are given above for reference purposes.” left out

[4] = system: T. vaginalis ATCC 30001; conditions: Trichomonas vaginalis, ATCC30001, 24 h, read-out: Minimal Inhibitory Concentration (MIC)
Procedure: as §1, with “The values for metronidazole (2-methyl-5-nitro-1H-imidazole-1-ethanol) are given above for reference purposes.” left out

[5] = Test 1, read-out: Minimal Inhibitory Concentration (MIC)
[6] = Test 2, read-out: Minimal Inhibitory Concentration (MIC)
[7] = Test 3, read-out: Minimal Inhibitory Concentration (MIC)

Row | SMILES | MIC [1, 5] [µg/mL] | MIC [1, 6] [µg/mL] | MIC [1, 7] [µg/mL] | MIC ([2]; Test 1) [µg/mL] | MIC ([2]; Test 2) [µg/mL] | MIC ([2]; Test 3) [µg/mL] | MIC ([3]; Test 1) [µg/mL] | MIC ([3]; Test 2) [µg/mL] | MIC ([3]; Test 3) [µg/mL] | MIC ([4]; Test 2) [µg/mL] | MIC ([4]; Test 3) [µg/mL] | MIC ([4]; Test 1) [µg/mL] | MIC ([1]; read-out: Minimal Inhibitory Concentration (MIC), Test 1) [µg/mL] | MIC ([1]; read-out: Minimal Inhibitory Concentration (MIC), Test 3) [µg/mL]
1 | Cl.FC(F)(F)c1cccc(C(Cn2ccnc2)=NNc2c(Cl)cccc2Cl)c1 [HC474, 1-(3-trifluoromethylphenyl)-2-(1H-imidazol-1-yl)ethanone, 2,6-dichlorophenylhydrazone, hydrochloride] | 7.5 | 5 | 5 | 10 | 5 | 7.5 | 5 | 7.5 | 7.5 | 50 | 50 | – | – | –
2 | Cl.Clc1ccc(NN=C(Cn2ccnc2)c2ccccc2)c(Cl)c1 [HC-306, 1-Phenyl-2-(1H-imidazol-1-yl)ethanone, 2,4-dichlorophenylhydrazone, hydrochloride] | 10 | 2.5 | 2.5 | 10 | 2.5 | 2.5 | 10 | 2.5 | 2.5 | 50 | 25 | 50 | – | –
3 | Clc1ccc(NN=C(Cn2ccnc2)c2ccc(Cl)s2)c(Cl)c1 [HC-363, 1-(5-chlorothien-2-yl)-2-(1H-imidazol-1-yl) ethanone, 2,4-dichlorophenylhydrazone, hydrochloride] | 2.5 | 2.5 | 7.5 | 2.5 | 2.5 | 2.5 | 1 | 2.5 | 2.5 | 50 | 50 | 50 | – | –
4 | Cl.Clc1cccc(Cl)c1NN=C(Cn1ccnc1)c1ccc(Br)cc1 [HC-364, 1-(4-bromophenyl)-2-(1H-imidazol-1-yl)ethanone, 2,6-dichlorophenylhydrazone, hydrochloride] | 10 | 5 | 25 | 10 | 2.5 | 2.5 | 10 | 2.5 | 5 | 50 | 50 | 50 | – | –
5 | Clc1ccc(NN=C(Cn2ccnc2)c2ccc(Br)cc2)c(Cl)c1 [HC-378, 1-(4-bromophenyl)-2-(1H-imidazol-1-yl) ethanone, 2,4-dichlorophenylhydrazone, hydrochloride] | 50 | 25 | 25 | 10 | 2.5 | 5 | 10 | 2.5 | 2.5 | > 50 | 50 | > 50 | – | –
6 | Clc1ccc(NN=C(Cn2ccnc2)c2ccc(Cl)cc2Cl)c(Cl)c1 [HC-380, 1-(2,4-dichlorophenyl)-2-(1H-imidazol-1-yl) ethanone, 2,4-dichlorophenylhydrazone, hydrochloride] | 10 | 2.5 | 2.5 | 10 | 2.5 | 2.5 | 10 | 2.5 | 2.5 | 25 | 25 | 50 | – | –
7 | CC(C(=NNc1c(Cl)cccc1Cl)c1ccc(Cl)cc1)n1ccnc1 (centres unmarked) [HC-403, 1-(4-chlorophenyl)-2-(1H-imidazol-1-yl)propanone, 2,6-dichlorophenylhydrazone, hydrochloride] | – | 7.5 | – | 2.5 | 2.5 | 2.5 | 5 | 2.5 | 5 | 7.5 | < 50 | < 50 | 1 | 50
8 | Cl.Clc1ccc(C(Cn2ccnc2)=NNc2c(Cl)cc(Cl)cc2Cl)c(Cl)c1 [HC-420, 1-(2,4-dichlorophenyl)-2-(1H-imidazol-1-yl)ethanone, 2,4,6-trichlorophenylhydrazone, hydrochloride] | 10 | 2.5 | 2.5 | 10 | 1 | 2.5 | 10 | 2.5 | 2.5 | 50 | 50 | 50 | – | –
